Measurements as given in ChEMBL document CHEMBL1129437, “New purines and purine analogs as modulators of multidrug resistance” (J Med Chem, 1996).

Key:
[1] = test system: Mus musculus; assay: Ratio of survival time of mice treated with VCR (0.25 mg/kg ip)+modulator given at the optimal dose of 100 mg/kg po/survival time of mice treated with VCR alone.; type: functional
[2] = test system: KB
Description: Percent of cell viability of KB-A1 human epidermoid carcinoma remaining after inoculation with the modulator alone

[3] = test system: P388
Description: Percent of cell viability of P388/VCR-20 murine leukemia cells remaining after inoculation with the modulator alone

[4] = test system: Mus musculus; assay: Ratio of survival time of mice treated with VCR (0.25 mg/kg ip)+modulator given at the optimal dose of 100 mg/kg po/survival time of mice treated with VCR alone; type: functional
[5] = test system: Mus musculus; assay: Ratio of survival time of mice treated with VCR (0.25 mg/kg ip)+modulator given at the optimal dose of 200 mg/kg po/survival time of mice treated with VCR alone.; type: functional
[6] = test system: Mus musculus; assay: Ratio of survival time of mice treated with VCR (0.25 mg/kg ip)+modulator given at the optimal dose of 50 mg/kg po/survival time of mice treated with VCR alone.; type: functional

SMILES	T/V [1]	Viability [2] [%]	Viability [3] [%]	T/V [4]	T/V [5]	T/V [6]	T/V ([1]; 100 mg/kg)
C=CCNc1nc(N2CCC(NCC3c4ccccc4CCc4ccccc43)CC2)nc2c1cnn2CC=C	1.31	132	74				
C=CCNc1nc(N2CCC(NCC3c4ccccc4CCc4cc(OC)ccc43)CC2)c2ncn(CC=C)c2n1 (stereo unspecified)	1.06	91	131				
C=CCNc1nc(N2CCC(NCC3c4ccccc4C=Cc4ccccc43)CC2)c2ncn(CC=C)c2n1	1.17	102	119				
C=CCNc1nc(N2CCC(NCC3c4ccccc4N(C)S(=O)(=O)c4cc(Cl)ccc43)CC2)c2ncn(CC=C)c2n1 (stereo unspecified)		141	89	1.03			
C=CCNc1nc(N2CCC(NCC3c4ccccc4N(C)S(=O)(=O)c4cc(Cl)ccc43)CC2)nc2c1ncn2CC=C (stereo unspecified)	1.13	121	70				
C=CCNc1nc(NCC=C)nc(N2CCC(NCC(c3ccc(F)cc3)c3ccc(F)cc3)CC2)n1		111	93		1.19		
C=CCNc1nc(N2CCC(NCc3cccc4ccccc34)CC2)c2ncn(CC=C)c2n1	1.31	106	104				
C=CCNc1nc(N2CCC(NC3c4ccccc4CCc4ccccc43)CC2)nc2c1ncn2CC=C		111	111				
C=CCNc1nc(N2CCC(NCC3c4ccccc4COc4ccccc43)CC2)nc2c1ncn2CC=C (stereo unspecified)	1.36	108	95				
C=CCNc1nc(N2CCC(NCC3c4ccccc4CCc4cc(OC)ccc43)CC2)nc2c1ncn2CC=C (stereo unspecified)	1.54	108	114				
C=CCNc1nc(N2CCC(NCC3c4ccccc4COc4ccccc43)CC2)c2ncn(CC=C)c2n1 (stereo unspecified)		110	91				
C=CCn1cnc2c(NCCC)nc(N3CCC(NCC4c5ccccc5CCc5ccccc54)CC3)nc21		112	103			1.38	
C=CCNc1nc(N2CCC(NCC3c4ccccc4CCc4ccccc43)CC2)nc2c1nnn2CC=C	1.17	84	83				
C=CCNc1nc(N2CCC(NCC3c4ccccc4CCc4ccccc43)CC2)c2ncn(CC=C)c2n1	1.19	95	112				
C=CCNc1nc(N2CCC(NC3c4ccccc4N(C)S(=O)(=O)c4cc(Cl)ccc43)CC2)nc2c1ncn2CC=C (stereo in doubt; 11)		60	146				1.27
C=CCNc1nc(N2CCC(NCC3c4ccccc4NC(=O)c4ccccc43)CC2)nc2c1ncn2CC=C (stereo unspecified)	1.13	126	106				
C=CCNc1nc(N2CCN(C(c3ccc(F)cc3)c3ccc(F)cc3)CC2)nc2ncn(CC=C)c12		104	97				
C=CCNc1nc(N2CCC(NCC(c3ccccc3)(c3ccccc3)c3ccccc3)CC2)nc2c1ncn2CC=C	1.3	127	119				

SMILES	T/V [1]	Viability [2] [%]	Viability [3] [%]	T/V [4]	T/V [5]	T/V [6]	T/V ([1]; 100 mg/kg)
C=CCNc1nc(N2CCC(NCC3Cc4ccccc4Cc4ccccc43)CC2)nc2c1ncn2CC=C (stereo unspecified)	1.42	104	98				
C=CCNc1nc(N2CCN(C(c3ccc(F)cc3)c3ccc(F)cc3)CC2)nc2c1ncn2CC=C		103	99				
C=CCNc1nc(N2CCC(NCC3c4ccccc4N(CCC)S(=O)(=O)c4ccccc43)CC2)nc2c1ncn2CC=C (stereo unspecified)	1.21	145	96				
C=CCNc1nc(N2CCC(NCc3cccc4ccccc34)CC2)nc2c1ncn2CC=C	1.33	110	80				
C=CCNc1nc(N2CCC(NCC3c4ccccc4CCc4ccccc43)CC2)nc2c1ccn2CC=C	1.24	86	126				
C=CCNc1nc(N2CCN(C(c3ccc(F)cc3)c3ccc(F)cc3)CC2)c2ncn(CC=C)c2n1		73	98				
C=CCNc1nc(N2CCC(NCC(c3ccccc3)c3ccccc3)CC2)nc2c1ncn2CC=C	1.3	115	93				
C=CCNc1nc(N2CCC(NC3c4ccccc4CCc4ccccc43)CC2)c2ncn(CC=C)c2n1		119	120				
C=CCNc1nc(N2CCC(NCC3c4ccccc4C=Cc4ccccc43)CC2)nc2c1ncn2CC=C		110	111			1.21	
C=CCNc1nc(N2CCC(NCC3c4ccccc4CCc4cc(OC)c(OC)c(OC)c43)CC2)nc2c1ncn2CC=C (stereo unspecified)	1.16	86	96				
CCCNc1nc(N2CCC(NCC3c4ccccc4CCc4ccccc43)CC2)nc2c1ncn2CCC	1.57	127	98				
C=CCNc1nc(N2CCC(NCC(c3ccc(F)cc3)c3ccc(F)cc3)CC2)nc2c1ncn2CC=C	1.49	120	95				
C=CCn1ncc2c(NCCC)nc(N3CCC(NCC4c5ccccc5CCc5cc(OC)ccc54)CC3)nc21 (stereo unspecified)	1.3	86	98				
C=CCNc1nc(N2CCC(NCC3CCCCc4ccccc43)CC2)nc2c1ncn2CC=C (stereo unspecified)		122	123			1.2	
C=CCNc1nc(N2CCC(NCC(c3ccc(F)cc3)c3ccc(F)cc3)CC2)c2ncn(CC=C)c2n1		106	108				
C=CCNc1nc(N2CCC(NC3c4ccccc4N(C)S(=O)(=O)c4cc(Cl)ccc43)CC2)nc2c1ncn2CC=C (stereo in doubt; 12)		64	135				1.11
C=CCNc1nc(N2CCC(NCC3c4ccccc4CCc4ccccc43)CC2)nc2c1ncn2CCC	1.31	107	102				
C=CCNc1nc(N2CCC(NCC3c4ccccc4CCc4cc(OC)ccc43)CC2)nc2c1cnn2CC=C (stereo unspecified)	1.18	103	90				
